Read-outs that look alike come from different tables or passages of the source.
Key:
BCL-2 = BCL-2 (Homo sapiens (Human), UniProt P10415); assay: Protein-protein interaction assay BCL-2/Bad BH3 peptide (BCL-2 assay, TR-FRET); assay type: binding; conditions: His-BCL-2 / Bad BH3 peptide, median
Protocol: Assay 3 Protein-Protein Interaction Assay: BCL-2/Bad BH3 Peptide (BCL-2 Assay)
The dose-dependent inhibition by the compounds described in this invention of the interaction between BCL-2 and the BH3 domain of Bad (both human) was determined using a steady state binding competition assay with time-resolved fluorescence energy transfer (TR-FRET) readout. For that purpose BCL-2 (amino acids 1-211, C-terminal fused to a hexahistidine (6×His) tag (SEQ ID 5) and a synthetic Bad BH3-derived peptide of sequence Biotin-PEG2-PEG2-NLWAAQRYGRELRR-Nle-SDEFVDSFKK-amide (SEQ ID 4) served as protein receptor and tracer ligand respectively. The recombinant BCL-2 protein (expressed in E. coli) was purchased from BPS Bioscience (San Diego, Calif., USA). The Bad BH3-derived peptide can be obtained from e.g. Biosyntan (Berlin, Germany).
In the assay 11 different concentrations of each compound (0.1 nM, 0.33 nM, 1.1 nM, 3.8 nM, 13 nM, 44 nM, 0.15 μM, 0.51 μM, 1.7 μM, 5.9 μM and 20 μM) were typically measured as duplicates in the same microtiter plate. For that, 100-fold concentrated DMSO solutions were prepared by serial dilutions (1:3.4) of a 2 mM stock solution in a clear, 384-well microtiter plate (Greiner Bio-One, Frickenhausen, Germany). From there, 50 nl were transferred in a dark test plate (Greiner Bio-One, Frickenhausen, Germany). The assay was initiated by addition of 2 μl of a 2.5-fold concentrated His-BCL-2 solution (usually for a 1 nM end concentration in 5 μl reaction volume) in aqueous assay buffer [50 mM Tris/HCl pH 7, 100 mM sodium chloride (NaCl), 50 mM potassium fluoride (KF), 0.005% Tween-20, 2 mM DTT, 0.1% bovine gamma globulin (BGG)] to the compounds in the assay plate. This was followed by a 10-minute incubation step at 22° C. for pre-equilibration of the putative complex between His-BCL-2 and the compounds. After that, 3 μl of a 1.67-fold concentrated solution (in assay buffer) consisting of Bad BH3-derived peptide (1 nM end concentration) and TR-FRET detection reagents [1.67 nM anti-His-Eu cryptate and 1.67 nM streptavidin-XL665 (both from Cisbio Bioassays, Codolet, France)], were added.
The mixture was incubated in the dark for one hour at 22° C. and then overnight at 4° C. The formation of BCL-2/Bad complexes was determined by measuring the resonance energy transfer of the anti-His-Eu-cryptate antibody to the streptavidin-XL665 present in the reaction. For that purpose, the fluorescence emission at 620 nm and 665 nm after excitation at 330-350 nm was measured in a TR-FRET measuring instrument, for instance a Rubystar or a Pherastar (both from BMG Lab Technologies, Offenburg, Germany) or a Viewlux (Perkin-Elmer). The ratio of the emission at 665 nm and at 622 nm was used as indicator of the amount of BCL-2/Bad complexes present.
The resulting data (ratio) were normalized, taking 0% inhibition as the mean value of control measurements (usually 32 data points) where all reagents were included. In this case 50 nl DMSO were used instead of compounds. A 100% inhibition corresponded to the mean value of control measurements (usually 32 data points) where all reagents except BCL-2 were included. IC50 values were determined by regression analysis based on a 4 parameter equation (minimum, maximum, IC50, Hill; Y=Max+(Min−Max)/(1+(X/IC50)^HiII) using the Screener Software (Genedata).

SUDHL5 [1] = assay: Induction of caspase-3/7 activity (Assay 4), SUDHL5; assay type: cell-based; conditions: caspase-3/7 induction, median
In short: (§1)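 DLBCL cells were exposed to compounds for 3 hours at 37 °C, then caspase-3/7 activation was read with Caspase-Glo 3/7 reagent. After subtracting medium-only background, EC50s were derived with fixed C0=1 and the reference compound's maximal induction as plateau.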

SUDHL10 [2] = assay: Induction of caspase-3/7 activity (Assay 4), SUDHL10; assay type: cell-based; conditions: caspase-3/7 induction, median
In short: as §1

SUDHL5 [3] = assay: Antiproliferation assay (Assay 7), SUDHL5; assay type: cell-based; conditions: CellTiter-Glo, median, read-out: Antiproli SUDHL5 [M] (median) IC50
In short: (§2)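 Plate cells in treatment and day 0 reference plates; read day 0 plate with CellTiter-Glo after 10 min; incubate treated plates 72 h at 37° C; read them identically.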

AMO-1 = assay: Antiproliferation assay (Assay 7), AMO-1; assay type: cell-based; conditions: CellTiter-Glo, several values per example, read-out: Antiproli AMO-1 [M] IC50
In short: as §2

SUDHL5 [4] = assay: Induction of cytotoxicity (Assay 6), SUDHL5; conditions: read-out: Cytotox SUDHL5 [M] (median) IC50, CellTiter-Glo, 5 hours, SUDHL5
SUDHL10 [5] = assay: Induction of cytotoxicity (Assay 6), SUDHL10; conditions: read-out: Cytotox SUDHL10 [M] (median) IC50, CellTiter-Glo, 5 hours, SUDHL10

Chain of BCL-2 (P10415 other isoform, or with tags, fused parts or gaps): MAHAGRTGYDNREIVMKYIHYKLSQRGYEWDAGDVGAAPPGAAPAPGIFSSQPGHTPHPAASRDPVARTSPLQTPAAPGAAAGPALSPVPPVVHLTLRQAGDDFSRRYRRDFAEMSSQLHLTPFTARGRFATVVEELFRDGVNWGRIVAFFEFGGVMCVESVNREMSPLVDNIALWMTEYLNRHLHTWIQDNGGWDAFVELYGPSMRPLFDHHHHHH

Row | IC50 (BCL-2) | EC50 (SUDHL5 [1]; Homo sapiens, SU-DHL-5, 3 h) | EC50 (SUDHL10 [2]; Homo sapiens, SU-DHL10, 3 h) | IC50 (SUDHL5 [3]; Homo sapiens, SU-DHL-5, 72 h) | EC50 (SUDHL5 [1]; 3 hours) | EC50 (SUDHL10 [2]; 3 hours) | IC50 (SUDHL5 [3]; 72 hours) | SMILES | IC50 (AMO-1; Homo sapiens, AMO1, 72 h) | IC50 (SUDHL5 [4]; Homo sapiens, SU-DHL-5, 5 h) | IC50 (SUDHL10 [5]; Homo sapiens, SU-DHL10, 5 h) | IC50 (AMO-1; 72 hours) | IC50 (SUDHL5 [4]) | IC50 (SUDHL10 [5])
1 | > 20000 nM | 1200 nM | 2600 nM | 7.6e-07 M | – | – | – | CCc1c2c(nn1C)CN(C)S(=O)(=O)CCCn1c(C(=O)O)c(CCCOc3ccc(F)c4ccccc34)c3ccc(F)c-2c31 (racemic) [Example 35, (rac)-12-Ethyl-13-fluoro-1-(34(4-fluoronaphthalen-1-yl)oxy)propyl)-8,11-dimethyl-5,6,9,11-tetrahydro-4H,8H-pyrazolo[3′,4′:4,5][1]thia[2,8]diazacycloundecino[6,7,8-hi]indole-2-carboxylic acid 7,7-dioxide] | 5.2e-06 M | 1.6e-06 M | 2.7e-06 M | 6.6e-06 M | – | –
2 | > 20000 nM | – | – | – | 3500 nM | 6000 nM | 4e-06 M | Cc1c2c(nn1C)C(CCN1CCOCC1)N(C)S(=O)(=O)CCCn1c(C(=O)O)c(CCCOc3cccc4cc(F)ccc34)c3ccc(Cl)c-2c31 (single isomer, unassigned; enantiomer 1) [Example 66, 4-chloro-7-{3-[(6-fluoronaphthalen-1-yl)oxy]propyl}-2,3,14-trimethyl-15-[2-(morpholin-4-yl)ethyl]-13,13-dioxo-10,11,12,13,14,15-hexahydro-2H-13lambda^6-pyrazolo[3′,4′:4,5][1,2,8]thiadiazacycloundecino[6,7,8-hi]indole-8-carboxylic acid (Enantiomer 1)] | – | – | – | 3.7e-06 M | 3.3e-06 M | 8.5e-06 M
3 | > 20000 nM | – | – | – | 350 nM | 730 nM | 5.4e-07 M | Cc1c2c(nn1C)CN(C)S(=O)(=O)CCCn1c(C(=O)O)c(CCCOc3cccc4cc(F)ccc34)c3ccc(F)c-2c31 (single isomer, unassigned; enantiomer 2) [Example 39, (+)-4-fluoro-7-{3-[(6-fluoronaphthalen-1-yl)oxy]propyl}-2,3,14-trimethyl-13,13-dioxo-10,11,12,13,14,15-hexahydro-2H-13lambda^6-pyrazolo[3′,4′:4,5][1,2,8]thiadiazacycloundecino-[6,7,8-hi]indole-8-carboxylic acid (Enantiomer 2)] | – | – | – | 1.4e-06 M | 4.5e-07 M | 6.7e-07 M
4 | > 20000 nM | – | – | – | 47 nM | 60 nM | 6e-08 M | Cc1c2c(nn1C)C(CCN1CCOCC1)N(C)S(=O)(=O)CCCn1c(C(=O)O)c(CCCOc3cccc4cc(F)ccc34)c3ccc(Cl)c-2c31 (racemic) [Example 65, (rac)-4-chloro-7-{3-[(6-fluoronaphthalen-1-yl)oxy]propyl}-2,3,14-trimethyl-15-(rac)-[2-(morpholin-4-yl)ethyl]-13,13-dioxo-10,11,12,13,14,15-hexahydro-2H-13lambda^6-pyrazolo[3′,4′:4,5][1,2,8]thiadiazacycloundecino[6,7,8-hi]indole-8-carboxylic acid (Mixture of Stereoisomers)] | – | – | – | 7.1e-08 M | 5.8e-08 M | 1e-07 M
5 | 20000 nM | – | – | – | 5000 nM | 12000 nM | 2.2e-06 M | CCc1c2c(nn1C)CN(C)S(=O)(=O)CCCn1c(C(=O)O)c(CCCOc3cccc4cc(F)ccc34)c3ccc(Cl)c-2c31 (single isomer, unassigned; enantiomer 2) [Example 37, (−)-4-chloro-3-ethyl-7-{3-[(6-fluoronaphthalen-1-yl)oxy]propyl}-2,14-dimethyl-13,13-dioxo-10,11,12,13,14,15-hexahydro-2H-13lambda^6-pyrazolo[3′,4′:4,5][1,2,8]thiadiazacycloundecino-[6,7,8-hi]indole-8-carboxylic acid (Enantiomer 2)] | – | – | – | 2.8e-05 M | 5.7e-06 M | 9e-06 M

The next lines start with the compound.

Row | SMILES | IC50 (BCL-2) | EC50 (SUDHL5 [1]; Homo sapiens, SU-DHL-5, 3 h) | EC50 (SUDHL10 [2]; Homo sapiens, SU-DHL10, 3 h) | IC50 (SUDHL5 [3]; Homo sapiens, SU-DHL-5, 72 h) | EC50 (SUDHL5 [1]; 3 hours) | EC50 (SUDHL10 [2]; 3 hours) | IC50 (SUDHL5 [3]; 72 hours) | IC50 (AMO-1; Homo sapiens, AMO1, 72 h) | IC50 (SUDHL5 [4]; Homo sapiens, SU-DHL-5, 5 h) | IC50 (SUDHL10 [5]; Homo sapiens, SU-DHL10, 5 h) | IC50 (AMO-1; 72 hours) | IC50 (SUDHL5 [4]) | IC50 (SUDHL10 [5])
6 | CCc1c2c(nn1C)CN(C)S(=O)(=O)CCCn1c(C(=O)O)c(CCCOc3cccc4c3CCCC4)c3ccc(Cl)c-2c31 [Example 23, (rac)-13-Chloro-12-ethyl-8,11-dimethyl-1-(3-((5,6,7,8-tetrahydronaphthalen-1-yl)oxy)propyl)-4,5,6,8,9,11-hexahydropyrazolo[3′,4′:4,5][1,2,8]thiadiazacycloundecino[6,7,8-hi]indole-2-carboxylic acid 7,7-dioxide] | 15000 nM | 1300 nM | 2300 nM | 6.9e-07 M | – | – | – | 3.8e-06 M | 1.7e-06 M | 2.5e-06 M | – | – | –
7 | Cc1c2c(nn1C)CN(C)S(=O)(=O)CCCn1c(C(=O)O)c(CCCOc3ccc(F)c4ccccc34)c3ccc(F)c-2c31 [Example 30, (rac)-13-Fluoro-1-(34(4-fluoronaphthalen-1-yl)oxy)propyl)-8,11,12-trimethyl-5,6,9,11-tetrahydro-4H,8H-pyrazolo[3′,4′:4,5][1]thia[2,8]diazacycloundecino[6,7,8-hi]indole-2-carboxylic acid 7,7-dioxide] | > 20000 nM | 1700 nM | 5600 nM | 1.4e-06 M | – | – | – | 7e-06 M | 1.7e-06 M | 4.4e-06 M | – | – | –
8 | Cc1c2c(nn1C)CN(C)S(=O)(=O)CCCn1c(C(=O)O)c(CCCOc3cccc4ccccc34)c3ccc(F)c-2c31 (racemic) [Example 26, (rac)-13-Fluoro-8,11,12-trimethyl-1-(3-(naphthalen-1-yloxy)propyl)-5,6,9,11-tetrahydro-4H,8H-pyrazolo[3′,4′:4,5][1]thia[2,8]diazacycloundecino[6,7,8-hi]indole-2-carboxylic acid 7,7-dioxide] | > 20000 nM | 1300 nM | 3500 nM | 1.4e-06 M | – | – | – | 7.1e-06 M | 1.8e-06 M | 3.4e-06 M | – | – | –
9 | Cc1c2c(nn1C)CN(C)S(=O)(=O)CCCn1c(C(=O)O)c(CCCOc3cccc4c3CCCC4)c3ccc(F)c-2c31 (racemic) [Example 29, (rac)-13-Fluoro-8,11,12-trimethyl-1-(3-((5,6,7,8-tetrahydronaphthalen-1-yl)oxy)propyl)-5,6,9,11-tetrahydro-4H,8H-pyrazolo[3′,4′:4,5][1]thia[2,8]diazacycloundecino[6,7,8-hi]indole-2-carboxylic acid 7,7-dioxide] | > 20000 nM | 1500 nM | 4500 nM | 5e-07 M | – | – | – | 7.1e-06 M | 1.8e-06 M | 3.8e-06 M | – | – | –

From patent publication US11401278B2, “Macrocyclic indole derivatives” (The Broad Institute, Inc., priority 2017, dated 2022)
